These results are taken from patent EP4596534A1, “NONCOVALENT SMALL-MOLECULE INHIBITORS OF THE KEAP1-NRF2 INTERACTION” (University of Copenhagen, priority 2024, dated 2025).

SMILES strings stand for the structures.

T1 sequence (Q14145 321-609): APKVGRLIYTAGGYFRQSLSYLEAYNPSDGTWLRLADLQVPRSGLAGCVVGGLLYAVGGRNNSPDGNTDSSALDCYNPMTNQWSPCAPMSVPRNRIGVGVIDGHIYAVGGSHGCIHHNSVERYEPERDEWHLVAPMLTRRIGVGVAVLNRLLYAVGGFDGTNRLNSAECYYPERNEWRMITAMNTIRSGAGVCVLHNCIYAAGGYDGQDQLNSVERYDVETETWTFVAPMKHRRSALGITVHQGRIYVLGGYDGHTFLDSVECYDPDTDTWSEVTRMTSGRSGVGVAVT

The test has as its target T1, human Keap1 Kelch domain (Homo sapiens, UniProt Q14145).
T1 construct: human Keap1 Kelch domain (residue 321-609, UniProt Q14145); made in house; host or cells: Escherichia coli BL21 (DE3) pLysS, pRSET A vector
The experiment in a line: Heterologous competition fluorescence polarization (FP) binding assay, Cy5-Nrf2 peptide probe. To be noted: mean ± SEM of at least 3 individual measurements; Keap1 Kelch 14 nM, Cy5-Nrf2 probe 3 nM, 4% DMSO. As for the experimental part:
The assay was performed in a 1 × HBSTET buffer (10 mM HEPES, 150 mM NaCl, 0.005% Tween20, 3 mM ethylenediaminetetraacetic acid (EDTA), 1 mM TCEP, pH = 7.4) using black flat-bottom 384-well plates (Corning Life Sciences, NY), a volume of 30 µL/well, and a final DMSO concentration of 4% or 8%. The assay plate was spun down to ascertain proper mixing and removal of potential air bubbles and incubated for 10-15 min at room temperature before measuring the FP levels on a Safire2 plate reader (Tecan, Männedorf, Switzerland). The g-factor was adjusted at each experiment so that a series of three blank wells containing probe but no Keap1 Kelch defined the baseline FP value. The Cy5-Nrf2 probe was measured at excitation/emission values of 635:670 nm. The FP values were fitted to the one-site specific binding equation: Y = Bmax × X/(Kd + X), with Bmax being the maximal FP value, X the Keap1 Kelch concentration, and Y the variable FP values. The Kd values were derived from the resulting binding saturation curve as being equal to the Keap1 Kelch concentration, where the curve is half-saturated.
The affinities between nonfluorescent small molecule Keap1 inhibitors and Keap1 Kelch were determined as Ki values in a heterologous competition FP binding assay. […] FP values were fitted to the equation Y = Bottom + (Top- Bottom)/[1 + (10^HillSlope×(log IC50-X))], where X is the logarithmic value of compound concentration. Hereby, the IC50 value was obtained, which together with the Kd value and probe and Keap1 Kelch concentrations was used to calculate the theoretical competitive inhibition constant, the Ki value.^43 Ki values are shown as mean ± SEM (standard error of mean) if based on two or more individual measurements.
In general, Ki refers to a measure of affinity in units of concentration, obtained from inhibition or displacement. Low readings indicate a stronger hold on the target, high ones a looser hold on the target. Regarding `O=C(O)CC(NC(=O)c1cccc2c1-c1ccccc1C2=O)c1ccc2c(c1)CN(S(=O)(=O)c1ccccc1)CC2` (stereo not shown) [Compound K46, 3-(9-oxo-9H-fluorene-4-carboxamido)-3-(2-(phenylsulfonyl)-1,2,3,4-tetrahydroisoquinolin-7-yl)propanoic acid], affinity was put at a Ki of 930 ± 210 nM.

Take `CCOc1ccc(S(=O)(=O)N2CCc3ccc(C(NC(=O)c4cccc5c4-c4ccccc4C5O)C(=O)O)cc3C2)cc1C#N` (stereo not shown) [Compound K32, 2-(2-((3-cyano-4-ethoxyphenyl)sulfonyl)-1,2,3,4-tetrahydroisoquinolin-7-yl)-2-(9-hydroxy-9H-fluorene-4-carboxamido)acetic acid]: the Ki is 590 ± 100 nM.

`CCOc1ccc(S(=O)(=O)N2CCc3ccc(C(NC(=O)c4cccc5c4-c4ccccc4C54SCCS4)C(=O)O)cc3C2)cc1C#N` (stereo not shown) [Compound K38, 2-(2-((3-cyano-4-ethoxyphenyl)sulfonyl)-1,2,3,4-tetrahydroisoquinolin-7-yl)-2-(spiro[fluorene-9,2'-[1,3]dithiolane]-4-carboxamido)acetic acid]: the affinity corresponds to a Ki of 170 ± 40 nM.

Compound `CCOc1ccc(S(=O)(=O)N2Cc3ccc(C(NC(=O)c4cccc5c4-c4ccccc4C5=O)C(=O)O)cc3C2)cc1C#N` (stereo not shown) [Compound K50, 2-(2-((3-cyano-4-ethoxyphenyl)sulfonyl)isoindolin-5-yl)-2-(9-oxo-9H-fluorene-4-carboxamido)acetic acid] yielded an inhibition constant Ki of 3600 ± 400 nM.
